Test results as given in patent publication US20200171030A1, “DUAL INHIBITORS OF ALK5 AND P38A MAP KINASE” (INTEGRAL BIOSCIENCES PRIVATE LIMITED, priority 2018, published 2020).
Structures can show the parent of a compound that is named as a salt.

Legend:
TGFBR1 (ALK5) = target: T1, TGFBR1 (ALK5) (Homo sapiens, UniProt P36897); experiment: ALK5 kinase assay (LanthaScreen Terbium labeled TR-FRET); format: biochemical; conditions: Table 4; read-out: ALK5 IC50
T1 sequence (P36897 34-503): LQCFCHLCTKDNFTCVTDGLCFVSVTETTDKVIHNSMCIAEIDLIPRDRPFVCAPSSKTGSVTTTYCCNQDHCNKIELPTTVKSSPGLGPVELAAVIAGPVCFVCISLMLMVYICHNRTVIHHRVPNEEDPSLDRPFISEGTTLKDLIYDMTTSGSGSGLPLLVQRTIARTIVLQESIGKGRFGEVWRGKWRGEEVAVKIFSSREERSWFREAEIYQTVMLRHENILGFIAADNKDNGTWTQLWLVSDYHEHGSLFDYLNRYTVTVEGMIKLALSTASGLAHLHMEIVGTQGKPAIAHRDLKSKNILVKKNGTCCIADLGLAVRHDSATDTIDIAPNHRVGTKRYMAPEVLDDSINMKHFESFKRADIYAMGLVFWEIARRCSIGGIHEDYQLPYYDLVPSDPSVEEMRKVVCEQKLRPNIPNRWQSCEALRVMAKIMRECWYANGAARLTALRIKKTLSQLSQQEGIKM
Protocol: ALK5 Kinase Assay for IC50 Determination:
IC50 values of compounds against TGFβ kinase was determined by LanthaScreen™ Terbium Labeled TR-FRET assay. Kinase assays were performed in IX kinase buffer (# PV6135, Invitrogen, Life Technologies Grand Island, N.Y.) where total reaction volume was 10 μL in low-volume 384-well plates (#4511,Corning). Serially diluted compounds (3-fold) were incubated with TGFβ kinase (6 nM) for 10 min, following which a mixture of ATP (10 μM) (# A1852, Sigma, St-Louis, Mo.) and fluorescent-PolyGT substrate (200 nM) (# PV3610, Invitrogen, Life Technologies Grand Island, N.Y.) was added and incubated in dark at room temperature for 1 h. After 1 h, 10 μL stop solution containing Terbium labeled antibody (4 nM) (# PV3529, Invitrogen, Life Technologies Grand Island, N.Y.) and EDTA (# E5134, Sigma, St-Louis, Mo.) (20 mM) in TR-FRET dilution buffer (# PV3574, Invitrogen, Life Technologies Grand Island, N.Y.) was added. Readings were taken in a Synergy Neo Plate reader (BioTek, Winooski) at single excitation of 340 nm and Dual emission at 495 nm and 520 nm respectively.
The % activity of test samples was calculated as (Sample−Min)×100/(Max−Min). [Max: DMSO control, complete reaction with enzyme with DMSO and Min: No enzyme with DMSO]. Percent inhibition (100-% activity) was fitted to the “four-parameter logistic model” in XLfit for determination of IC50 values.

MAPK14/p38α kinase = target: T2, MAPK14/p38α kinase (Homo sapiens, UniProt Q16539); experiment: MAPK14/p38α kinase assay (LanthaScreen TR-FRET); format: biochemical; conditions: 100 nM concentration of compound; Table 4; read-out: Enzyme Activity MAPK14 (p38alpha) % Inh at 100 nM
T2 construct: purchased ThermoFisher PV3304
T2 sequence (Q16539 whole entry): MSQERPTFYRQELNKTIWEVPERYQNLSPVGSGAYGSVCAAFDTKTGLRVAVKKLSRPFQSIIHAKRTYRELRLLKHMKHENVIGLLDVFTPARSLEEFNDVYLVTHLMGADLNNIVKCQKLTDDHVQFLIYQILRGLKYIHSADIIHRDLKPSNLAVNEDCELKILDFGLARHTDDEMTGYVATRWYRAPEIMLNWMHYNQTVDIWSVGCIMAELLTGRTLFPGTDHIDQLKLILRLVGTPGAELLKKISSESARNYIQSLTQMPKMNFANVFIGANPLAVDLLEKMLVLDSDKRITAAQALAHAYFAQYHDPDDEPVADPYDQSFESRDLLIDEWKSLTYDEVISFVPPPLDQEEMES
Protocol: MAPK14/p38α Kinase Assay for IC50 Determination:
IC50 values of compounds against MAPK14/P38α kinase were determined by Lanthascreen based TR-FRET assay. Kinase reactions were performed in a 10 μL volume in low-volume 384-well plates. The concentration of substrate was maintained at 400 nM in the assay, and the kinase reaction buffer (1×; Cat # PV3189, ThermoFisher) consisted of 50 mM HEPES pH 7.5, 0.01% BRIJ-35, 10 mM MgCl2, and 1 mM EGTA. Serially diluted compounds (3-fold) in DMSO (0.5% in final reaction) were incubated with cocktail of MAPK14/p38α kinase (20 ng/ml; Cat # PV3304, ThermoFisher), Substrate GFP-ATF2 (19-96), (0.4 μM; Cat # PV4445, ThermoFisher), ATP (90 μM; Cat # PV3227, ThermoFisher) and buffer. Kinase reactions were allowed to proceed for 1 hour at room temperature before EDTA (10 mM; Cat # P2825, ThermoFisher) and LanthaScreen™ Tb-antipATF2 (pThr71) Antibody (2 nM; Cat # PV4451, ThermoFisher) in TR-FRET dilution buffer (IX; Cat # PV3574, ThermoFisher) were added. The plate was allowed to incubate at room temperature for 30 minutes before being read on a BMG Pherastar plate reader using the LanthaScreen™ filter block for LanthaScreen™ TR-FRET.
The resulting TR-FRET emission ratio was plotted against the concentration of inhibitor, and the data was fit to a sigmoidal dose-response curve with a variable slope. The IC50 for the inhibitor was calculated from the curve.

Panc-1 = experiment: Cell viability assay (resazurin, 96 hr) in Panc-1; format: cell-based; conditions: Homo sapiens; Panc-1 pancreatic cell line, 96 hr exposure; read-out: Panc-1_Cell Viability_IC50
Protocol: (§1) Cell Viability Assay in MIA PaCa-2 and Panc-1
(§2) MIA PaCa-2 (ATCC® CRL-1420™) and Panc-1 (CRL-1469™), both pancreatic cell lines were seeded in their respective medium (DMEM, Cat #10569044 with 10% FBS, Cat #16000044; Gibco for Panc-1 and an additional 2.5% Horse Serum, Cat #16050122; Gibco for MIA PaCa-2) at a cell count of 3000 cells per 100 μl per well in a 96 well edge plate (167425; ThermoFisher). Cells were allowed to grow at 37° C. for 24 hr in 5% CO2 (culture conditions) in a Nuaire incubator (humidified). Serially diluted compounds (100 μl) were added to the culture plate 24 hr later and the cultures (MIA PaCa-2 and Panc-1) were further incubated in culture conditions for 96 hr. Experiment was terminated at the completion of 96 hr exposure to the drug by replacing the medium with 100 μl of 1 mM of resazurin (R7017; Sigma) prepared in culture medium and the plates were further incubated in culture conditions for 4 hr. Fluorescence was then measured using a multimodal plate reader (Biotek Synergy Neo) at an excitation wavelength of 535 nm and emission wavelength of 590 nm to obtain relative fluorescence units. Data analysis was done by subtracting the background fluorescence (only medium blank) value from each reading and then normalizing with the vehicle control (DMSO treated cells) to obtain percent survival/proliferation. Percent survival at different doses was used to calculate IC50 by fitting the curve to the “four-parameter variable slope logistic model” using Prism Graph Pad.

MIA PaCa-2 = experiment: Cell viability assay (resazurin, 96 hr) in MIA PaCa-2; format: cell-based; conditions: Homo sapiens; MIA PaCa-2 pancreatic cell line, 96 hr exposure; read-out: MiaPaCa-2_Cell Viability_IC50
Protocol: as §1, §2

CC(C)c1cnc(-c2ccc(F)cc2)nc1Nc1ccnc2[nH]cc(N3CCN[C@H](C)C3)c12 [Compound No. 9, (R)—N-(2-(4-fluorophenyl)-5-isopropylpyrimidin-4-yl)-3-(3-methylpiperazin-1-yl)-1H-pyrrolo[2,3-b]pyridin-4-amine hydrochloride]
IC50 (TGFBR1 (ALK5)): 0.103 µM | inhibition at 0.1 µM (MAPK14/p38α kinase): 52% | IC50 (Panc-1): 3.28 µM | IC50 (MIA PaCa-2): 3.53 µM
